{
  "source": "patent US6914045B2",
  "about": "“Glycopeptide antibiotics” (Wyeth Holdings Corporation, priority 2001, dated 2005)",
  "assay_in_all_cases": "in vitro antibacterial evaluation, MIC by broth dilution",
  "assay_type_in_all_cases": "cell-based",
  "key": {"Enterococcus sp.": {"system": "Enterococcus sp.", "conditions": "broth dilution, 18 hours at 35° C.", "in_short": "(§1)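 Read-out: the lowest concentration at which the test strain fails to grow. Serial dilutions (64-0.06 μg/mL) in Muller-Hinton II […], 5×10^5 CFU/mL inoculum, NCCLS M7-A2 procedure.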"}, "Streptococcus sp.": {"system": "Streptococcus sp.", "conditions": "broth dilution, 18 hours at 35° C.", "in_short": "as §1"}, "Staphylococcus sp.": {"system": "Staphylococcus sp.", "conditions": "broth dilution, 18 hours at 35° C.", "in_short": "as §1"}, "Escherichia coli": {"system": "Escherichia coli", "conditions": "18 hours at 35° C.", "in_short": "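Inoculum 5×10^5 CFU/mL; concentrations 64 to 0.06 μg/mL; MIC defined as lowest inhibitory level. Conducted by broth dilution under NCCLS guidelines.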"}},
  "data": [
    {"smiles": "CC=C(C)C(=O)OC1C(CO)OC(OC2C(CO)OC(Oc3ccc(CC4NC(=O)C(C(C)c5ccccc5)NC(=O)CNC(=O)C(CO)NC(=O)C(C(O)C5CNC(=N)N5C5OC(CO)C(O)C(O)C5O)NC(=O)C(C(O)C5CNC(=N)N5)NC4=O)cc3)C(O)C2O)C(O)C1O", "note": "(stereo not drawn) [Example 278b, Cyclo[glycyl-β-methylphenylalanyl-O-[4-O-[4-O-(2-methylbut-2-enoyl)hexopyranosyl]-hexopyranosyl]tyrosyl-3-(2-iminoimidazolidin-4-yl)seryl-3-(3-hexopyranosyl-2-imino-imidazolidin-4-yl)serylseryl]]", "values": [
      {"measurement": "MIC Enterococcus avium (GC 4558)", "setting": "Enterococcus sp.; Enterococcus avium (GC 4558)", "value": 32, "unit": "µg/mL"},
      {"measurement": "MIC Enterococcus faecalis (ATCC 29212)", "setting": "Enterococcus sp.; Enterococcus faecalis (ATCC 29212)", "value": 32, "unit": "µg/mL"},
      {"measurement": "MIC Enterococcus faecalis (GC 4553)", "setting": "Enterococcus sp.; Enterococcus faecalis (GC 4553)", "value": 32, "unit": "µg/mL"},
      {"measurement": "MIC Enterococcus faecalis (GC 4554)", "setting": "Enterococcus sp.; Enterococcus faecalis (GC 4554)", "value": 32, "unit": "µg/mL"},
      {"measurement": "MIC Enterococcus faecalis (GC 6189)", "setting": "Enterococcus sp.; Enterococcus faecalis (GC 6189)", "value": 32, "unit": "µg/mL"},
      {"measurement": "MIC Enterococcus faecium (GC 2243)", "setting": "Enterococcus sp.; Enterococcus faecium (GC 2243)", "value": 32, "unit": "µg/mL"},
      {"measurement": "MIC Enterococcus faecium (GC 4556)", "setting": "Enterococcus sp.; Enterococcus faecium (GC 4556)", "value": 32, "unit": "µg/mL"},
      {"measurement": "MIC Enterococcus faecium (GC 4557)", "setting": "Enterococcus sp.; Enterococcus faecium (GC 4557)", "value": 8, "unit": "µg/mL"},
      {"measurement": "MIC Enterococcus faecalis (ATCC 29212)", "setting": "Enterococcus sp.; strain ATCC 29212", "value": 32, "unit": "µg/mL"},
      {"measurement": "MIC Enterococcus faecalis (GC 2242)", "setting": "Enterococcus sp.; strain GC 2242", "value": 32, "unit": "µg/mL"},
      {"measurement": "MIC Enterococcus faecium (GC 2243)", "setting": "Enterococcus sp.; strain GC 2243", "value": 32, "unit": "µg/mL"},
      {"measurement": "MIC Enterococcus faecalis (GC 2691)", "setting": "Enterococcus sp.; strain GC 2691", "value": 32, "unit": "µg/mL"},
      {"measurement": "MIC Enterococcus faecalis (GC 3059)", "setting": "Enterococcus sp.; strain GC 3059", "value": 64, "unit": "µg/mL"},
      {"measurement": "MIC Enterococcus faecalis (GC 4552)", "setting": "Enterococcus sp.; strain GC 4552", "value": 32, "unit": "µg/mL"},
      {"measurement": "MIC Enterococcus faecalis (GC 4553)", "setting": "Enterococcus sp.; strain GC 4553", "value": 32, "unit": "µg/mL"},
      {"measurement": "MIC Enterococcus faecalis (GC 4554)", "setting": "Enterococcus sp.; strain GC 4554", "value": 32, "unit": "µg/mL"},
      {"measurement": "MIC Enterococcus faecium (GC 4556)", "setting": "Enterococcus sp.; strain GC 4556", "value": 32, "unit": "µg/mL"},
      {"measurement": "MIC Enterococcus faecium (GC 4557)", "setting": "Enterococcus sp.; strain GC 4557", "value": 8, "unit": "µg/mL"},
      {"measurement": "MIC Enterococcus avium (GC 4558)", "setting": "Enterococcus sp.; strain GC 4558", "value": 32, "unit": "µg/mL"},
      {"measurement": "MIC Enterococcus faecalis (GC 6189)", "setting": "Enterococcus sp.; strain GC 6189", "value": 32, "unit": "µg/mL"},
      {"measurement": "MIC Streptococcus pneumoniae (ATCC 6301)", "setting": "Streptococcus sp.; strain ATCC 6301", "value": 1, "unit": "µg/mL"},
      {"measurement": "MIC Streptococcus pneumoniae (GC 1894)", "setting": "Streptococcus sp.; strain GC 1894", "value": 1, "unit": "µg/mL"},
      {"measurement": "MIC Streptococcus pyogenes (GC 4563)", "setting": "Streptococcus sp.; strain GC 4563", "value": 2, "unit": "µg/mL"},
      {"measurement": "MIC Streptococcus agalactiae (GC 4564)", "setting": "Streptococcus sp.; strain GC 4564", "value": 4, "unit": "µg/mL"},
      {"measurement": "MIC Streptococcus pneumoniae (GC 4565)", "setting": "Streptococcus sp.; strain GC 4565", "value": 2, "unit": "µg/mL"},
      {"measurement": "MIC Coagulase Negative Staphylococcus (GC 4547)", "setting": "Staphylococcus sp.", "value": 4, "unit": "µg/mL"},
      {"measurement": "MIC Coagulase Negative Staphylococcus (GC 4548)", "setting": "Staphylococcus sp.", "value": 4, "unit": "µg/mL"},
      {"measurement": "MIC Coagulase Negative Staphylococcus (GC 4549)", "setting": "Staphylococcus sp.", "value": 2, "unit": "µg/mL"},
      {"measurement": "MIC Coagulase Negative Staphylococcus (GC 4551)", "setting": "Staphylococcus sp.", "value": 8, "unit": "µg/mL"},
      {"measurement": "MIC Coagulase Negative Staphylococcus (GC 6257)", "setting": "Staphylococcus sp.", "value": 2, "unit": "µg/mL"},
      {"measurement": "MIC Staphylococcus aureus (ATCC 29213)", "setting": "Staphylococcus sp.", "value": 8, "unit": "µg/mL"},
      {"measurement": "MIC Staphylococcus aureus (GC 1131)", "setting": "Staphylococcus sp.", "value": 8, "unit": "µg/mL"},
      {"measurement": "MIC Staphylococcus aureus (GC 3051)", "setting": "Staphylococcus sp.", "value": 4, "unit": "µg/mL"},
      {"measurement": "MIC Staphylococcus aureus (GC 3053)", "setting": "Staphylococcus sp.", "value": 8, "unit": "µg/mL"},
      {"measurement": "MIC Staphylococcus aureus (GC 4541)", "setting": "Staphylococcus sp.", "value": 8, "unit": "µg/mL"},
      {"measurement": "MIC Staphylococcus aureus (GC 4542)", "setting": "Staphylococcus sp.", "value": 8, "unit": "µg/mL"},
      {"measurement": "MIC Staphylococcus aureus (GC 4544)", "setting": "Staphylococcus sp.", "value": 8, "unit": "µg/mL"},
      {"measurement": "MIC Staphylococcus aureus (GC 4545)", "setting": "Staphylococcus sp.", "value": 4, "unit": "µg/mL"},
      {"measurement": "MIC Staphylococcus aureus-SMITH (GC 4543)", "setting": "Staphylococcus sp.", "value": 8, "unit": "µg/mL"},
      {"measurement": "MIC Staphylococcus haemolyticus (GC 4546)", "setting": "Staphylococcus sp.", "value": 4, "unit": "µg/mL"},
      {"measurement": "MIC Staphylococcus aureus (ATCC 29213)", "setting": "Staphylococcus sp.; strain ATCC 29213", "value": 8, "unit": "µg/mL"},
      {"measurement": "MIC Staphylococcus aureus (GC 1131)", "setting": "Staphylococcus sp.; strain GC 1131", "value": 8, "unit": "µg/mL"},
      {"measurement": "MIC Staphylococcus aureus (GC 3051)", "setting": "Staphylococcus sp.; strain GC 3051", "value": 4, "unit": "µg/mL"},
      {"measurement": "MIC Staphylococcus aureus (GC 3053)", "setting": "Staphylococcus sp.; strain GC 3053", "value": 8, "unit": "µg/mL"},
      {"measurement": "MIC Staphylococcus aureus (GC 4541)", "setting": "Staphylococcus sp.; strain GC 4541", "value": 8, "unit": "µg/mL"},
      {"measurement": "MIC Staphylococcus aureus (GC 4542)", "setting": "Staphylococcus sp.; strain GC 4542", "value": 8, "unit": "µg/mL"},
      {"measurement": "MIC Staphylococcus aureus (GC 4544)", "setting": "Staphylococcus sp.; strain GC 4544", "value": 8, "unit": "µg/mL"},
      {"measurement": "MIC Staphylococcus aureus (GC 4545)", "setting": "Staphylococcus sp.; strain GC 4545", "value": 4, "unit": "µg/mL"},
      {"measurement": "MIC Staphylococcus haemolyticus (GC 4546)", "setting": "Staphylococcus sp.; strain GC 4546", "value": 4, "unit": "µg/mL"},
      {"measurement": "MIC Coagulase Negative Staphylococcus (GC 4547)", "setting": "Staphylococcus sp.; strain GC 4547", "value": 4, "unit": "µg/mL"},
      {"measurement": "MIC Coagulase Negative Staphylococcus (GC 4548)", "setting": "Staphylococcus sp.; strain GC 4548", "value": 4, "unit": "µg/mL"},
      {"measurement": "MIC Coagulase Negative Staphylococcus (GC 4549)", "setting": "Staphylococcus sp.; strain GC 4549", "value": 2, "unit": "µg/mL"},
      {"measurement": "MIC Coagulase Negative Staphylococcus (GC 4551)", "setting": "Staphylococcus sp.; strain GC 4551", "value": 8, "unit": "µg/mL"},
      {"measurement": "MIC Coagulase Negative Staphylococcus (GC 6257)", "setting": "Staphylococcus sp.; strain GC 6257", "value": 2, "unit": "µg/mL"},
      {"measurement": "MIC Staphylococcus aureus-SMITH (GC 4543)", "setting": "Staphylococcus sp.; strain SMITH GC 4543", "value": 8, "unit": "µg/mL"},
      {"measurement": "MIC Escherichia coli (ATCC 25922)", "setting": "Escherichia coli; Escherichia coli (ATCC 25922)", "value": ">64", "unit": "µg/mL"},
      {"measurement": "MIC Escherichia coli (GC 4559)", "setting": "Escherichia coli; Escherichia coli (GC 4559)", "value": ">64", "unit": "µg/mL"},
      {"measurement": "MIC Escherichia coli (GC 4560)", "setting": "Escherichia coli; Escherichia coli (GC 4560)", "value": 4, "unit": "µg/mL"}
    ]}
  ]
}
